Target: T1, AcCP (rAcCP) (Acanthamoeba castellanii, UniProt A1YJR6)
T1 sequence (A1YJR6 44-330): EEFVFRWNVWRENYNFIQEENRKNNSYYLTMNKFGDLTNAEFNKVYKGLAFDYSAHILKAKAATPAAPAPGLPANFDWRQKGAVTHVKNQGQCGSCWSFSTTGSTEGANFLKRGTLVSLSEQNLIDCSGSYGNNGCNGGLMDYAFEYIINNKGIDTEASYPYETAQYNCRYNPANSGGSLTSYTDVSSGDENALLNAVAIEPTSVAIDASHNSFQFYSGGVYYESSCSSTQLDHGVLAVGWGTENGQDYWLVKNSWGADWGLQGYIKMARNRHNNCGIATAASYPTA
Assay: inhibition of fluorogenic substrate hydrolysis
Format: biochemical
Conditions: fully processed rAcCP; data not shown; covalent

SMILES: CC(C)C[C@H](NC(=O)[C@H]1O[C@@H]1C(=O)O)C(=O)NCCCCN=C(N)N [E-64, trans-epoxy-succinyl-L-leucylamido(4-guanidino)-butane]
- inhibition of fluorogenic substrate hydrolysis; active site titration: The fully processed rAcCP was effectively inhibited by a cysteine protease inhibitor, E-64 (data not shown)

Source: article PMC6243185 (The Korean Journal of Parasitology, 2018)
